What is called IC50 is the concentration that gives 50% inhibition.

These results are taken from PMC12298648, “An Evaluation of the Cytotoxicity and Safety Profile of Usnic Acid for a Broad Panel of Human Cancers and Normal Cells with Respect to Its Enantiospecificity” (Molecules, 2025).

One experiment has as its system FemX. Set-up: method as in PMID 23203090. The settings on record: 72 h; cited from earlier work.
In the next experiment the test system is 518A2. Details: method as in PMID 27936296. The settings on record: 518A2, 72 h, cited from earlier work.
The next experiment deals with C8D1A. Put plainly: MTT viability assay, normal astrocytes C8D1A. The settings on record: Mus musculus, C8-D1A; murine astrocytes, 24 h, reference drug. It counts as cell-based, murine. The source says:
(§1) Cell lines of different origins were used in the study and grouped as follows: prostate panel (human prostate carcinomas: DU145, derived from metastatic site: brain; grade IV PC3, derived from metastatic site: bone; LNCaP, derived from the metastatic site: lymph node; prostate epithelial, PNT2), colon panel (colorectal adenocarcinomas: HT29, originating from a primary tumor; Duke’s type C DLD-1, with the potential to lymph node metastasis; highly metastatic HCT116; colon epithelial cells CCD 841 CoN), thyroid panel (follicular thyroid carcinoma FTC133, anaplastic thyroid carcinoma 8505C, papillary thyroid carcinoma TPC-1, normal thyroid follicular epithelial Nthy-ori 3–1), breast panel (ER-positive breast adenocarcinoma MCF7, ER-negative breast adenocarcinoma MDA-MB-231, breast epithelial MCF10A), brain panel (neuroblastoma SH-SY5Y, glioblastoma U-87 MG, murine astrocytes C8D1A). All cell lines were purchased from Merck (Darmstadt, Germany).
(§2) Cells were grown under standard conditions (37 °C, 5% CO2) and culture media (DMEM/F12 for PNT2, PC3, FTC133, 8505 C, MDA-MB-231, TPC-1; DMEM Low Glucose for DU145; DMEM High Glucose for HCT116, DLD-1, SH-SY5Y, U87MG, C8D1A; MEM with NEAA for MCF7; MEM for CCD 841 CoN; McCoy’s for HT29; RPMI1640 with sodium pyruvate for LNCaP; DMEM/F12 with 20 ng/mL epidermal growth factor (EGF), 10 μg/mL insulin, 0.5 μg/mL hydrocortisone, 100 ng/mL cholera toxin) for MCF10A), supplemented with 10% fetal bovine serum (FBS) or 5% donor horse serum for MCF10A, and 1% antibiotics solution (10,000 U penicillin and 10 mg streptomycin/mL). The tested substances were prepared as 10 mg/mL stock solutions in DMSO and further diluted in the culture media to the working concentrations. Cells were treated with UA enantiomers at the concentration range of 0–50 µg/mL. The influence of DMSO on cell viability was also examined, with the final concentration […], and no toxic effect was noted.
(§3) The cells were seeded onto 96-well plates at a density of 1.5 × 10^4 cells/well. After 24 h UA enantiomers were added. Cell viability was determined after 24, 48, and 72 h by the MTT assay, as described previously. Doxorubicin was used as a reference cytostatic drug. All analyses were performed in triplicate; cell viability was expressed as % of control, untreated cells (mean ± SD), and IC50 values (concentration at which cell viability is inhibited by 50%), if possible.

In a further experiment the test system is HepG2 cells. Details: method as in PMID 40368021. The settings on record: HepG2, 24 h, reference drug; cited from earlier work.
In another experiment the test system is PNT2. The experiment in a line: MTT viability assay, normal prostate epithelial cells. It counts as cell-based, human. The settings on record: Homo sapiens, PNT2; normal prostate epithelial cells, reference drug, time not given; read-out: IC50.
Description: as §1, §2, §3

A further experiment relates to CCD 841 CoN. The experiment in a line: MTT viability assay, normal colon epithelial cells. It counts as cell-based, human. The settings on record: Homo sapiens, CCD-841CoN; normal colon epithelial cells, 24 h, reference drug; read-out: IC50.
Description: as §1, §2, §3

The subject of the next experiment is WM793 cells. Details: method as in PMID 34577645. The settings on record: WM793, reference drug, time not given; cited from earlier work.
Experiment [1] concerns human non-cancerous skin cells. Set-up: method as in PMID 34500657. The settings on record: 24 h, reference drug; cited from earlier work.

Values after ≈ are worked out from the molar mass of the structure shown. Read-outs that look alike come from different tables or passages of the source.

As to `CC(=O)c1c(O)c(C)c(O)c2c1OC1=CC(=O)C(C(C)=O)C(=O)C12C` (stereo not drawn) [UA, Usnic acid], the IC50 was 12.72 µg/mL (≈ 36.9 µM) in the experiment on FemX, “≈ 2 µg/mL” in the experiment on 518A2 (recalculated from µM by the authors) and 5.4 µM with 518A2 (read-out: IC50).

Consider `COc1cccc2c1C(=O)c1c(O)c3c(c(O)c1C2=O)C[C@@](O)(C(=O)CO)C[C@@H]3O[C@H]1C[C@H](N)[C@H](O)[C@H](C)O1` [doxorubicin, reference compound], for which the IC50 is 2.25 µg/mL (≈ 4.14 µM) with C8D1A; 1.4 µg/mL (≈ 2.58 µM) in the experiment with PNT2; 2.25 µg/mL (≈ 4.14 µM) in the experiment with CCD 841 CoN; above 100 µg/mL with WM793 cells; 4.7 µg/mL (≈ 8.65 µM) in experiment [1]. The “IC50 (hepatotoxicity)” value in the experiment with HepG2 cells is on record as 1.03 µg/mL (≈ 1.9 µM).
